In patent EP0319986B1, “Anti-plasmin depressant” (NIPPON SHINYAKU COMPANY, LIMITED, priority 1987, dated 1989):

Key:
[1] = in vivo; conditions: mouse
Protocol: Four (4) ddY strain male mice of 6 week age were used for each group of the test sample.
In intravenous administration, each sample was dissolved in 0.9% physiological saline and the solution was administered through the tail vein. In intraperitoneal administration, each sample was suspended in 0.5% CMC-physiological saline and 0.1 ml of the suspension per […] of mouse body weight was intraperitoneally administered. In oral administration, each sample was suspended in 0.5% CMC-physiological saline and 0.2 ml of the suspension per […] administered.
Observation was made immediately after the administration. After observation for 1 week after the administration, the mice was sacrificed with chloroform and subjected to autopsy.

[2] = system: α2-PI; experiment: α2-PI activity in plasma of Beagle dogs after consecutive intravenous administration (S-2251); type: in vivo; conditions: 30 mg/kg intravenous, consecutive 7 days, activity prior to administration = 100%, n=3
Protocol: Three (3) male Beagle dogs were used for the control group and the administered group, respectively, as animals to be administered.
A test sample (Compound No. 2) was dissolved in a concentration of […] 0.1 ml, using 0.1 M phosphage buffer (pH 7.2). After dissolution, the solution was sterilized by filtration through a sterile filter (pore size, 0.2 µm) and then 0.3 ml of the solution was administered per 1 kg of body weight (30 mg/kg). The administration was made through the right front limb vein for consecutive 7 days. Collected blood was mixed with 3.8% sodium citrate in a ratio of 1 : 9 by volume. By centrifugation at 3000 rpm for 15 minutes, plasma was isolated.
The α2-PI activity was measured as an inhibition activity against decomposition of plasmin with the synthetic chromogenic substrate S-2251. The results of measurement are shown as change in inhibition activity after administration based on 100% of the plasmin inhibition activity prior to administration of the test sample (Table 2). The sample number in each group was 3 samples.
The α2-PI activity was obviously depressed by consecutive administration of the test compound in a dose of 30 mg/kg.

[3] = system: urokinase type plasminogen activator; experiment: Fibrin autography of CPAE culture solution after SDS-polyacrylamide gel electrophoresis; type: cell-based, calf; conditions: culture solution of CPAE cells added with compound; lysis at the position of molecular weight of urokinase type plasminogen activator
Description: It has been clarified that the compounds used according to the present invention are capable of inducing fibrinolytic activity in CPAE cells. In order to verify by what substance in addition to the α2-PI lowering activity, this fibrinolytic activity is induced, analysis was made on the culture solution added with Compound No. 2 out of the compounds used according to the present invention, by means of fibrin autography.
By SDS-polyacrylamide gel using 10% gel, this culture solution and t-PA (tissue plasminogen activator) and urokinase were subjected to electrophoresis. After the electrophoresis, the gel was treated with 2.5% Triton X-100, which was inoculated on agar plate added with fibrinogen, thrombin and plasminogen. A place of fibrin which caused lysis was confirmed in an incubator of 37°C in 5% CO2.

[4] = system: CPAE (calf pulmonary artery endothelia); experiment: Thrombolytic test in vitro: CPAE culture supernatant on fibrin plate, lysis circle; type: cell-based; conditions: 5 µl of 0.2 mg/ml compound solution per well of CPAE cells, 72 hours; 5 µl supernatant on fibrin plate with plasminogen, 4 hours; 4 mm or more = thrombolytic ability induced
Protocol: Thrombolytic activity-inducing ability in the established vascular endothelial cell culture system was examined using CPAE (calf pulmonary artery endothelia).
[…] cells were purchased from Dainippon Pharmaceutical Co., Ltd., Department of Laboratory Products. CPAE cells were subcultured in 10% FCS-Eagle MEM medium charged in a culture flask of 25 cm^2. From the cell suspension fractionated upon subculture, 0.1 ml was transferred into a test tube with a sterilized pipette. Then, the cell suspension was diluted to 10 fold with 0.9 ml of Trypan Blue solution and a cell count was counted with a cell counter. After diluting with 10% FCS-Eagle MEM medium so as to have a cell count of 2 x 10^5 cells/ml, 100 µl each/well, namely, 2 x 10^4 cells/well, of the dilution was dispensed in a 96 well microtiter plate (manufactured by Corning) with a micropipette. The plate was incubated at 37°C in 5% CO2.
The compound used according to the present invention was dissolved in medium in 0.2 mg/ml; the compound that was insoluble in the medium was dissolved in less than 1% of DMSO and the resulting solution was aseptically filtered through a filter; 5 µl of the solution was added to the well with a sterilized micropipette 24 hours after onset of the incubation. After culturing at 37°C for 72 hours in 5% CO2, the collected culture supernatant was provided for measurement.
The measurement was performed as follows. Plasminogen, 5 µl, was charged in a well of fibrin plate (manufactured by Kitazato institute), which was allowed to stand until diffusion was completed. After diffusion, 5 µl of the supernatant was charged and then put in a carbon dioxide gas incubator of 37°C. Four hours after, evaluation was made by formation of a transparent lysis circle by fibrinolysis.
In the case of forming a circle of 4 mm or more due to fibrinolysis, it was judged that thrombolytic ability of CPAE cells was induced.
After the fibrinolytic activity was checked over, the well was fixed with 2.5% of glutaraldehyde in a final concentration. Then, the solution was discarded and the system was washed with PBS. After washing, moisture was removed. After staining with 100 µl of 0.1% crystal violet and allowing stand for 2 to 3 minutes, the system was washed with running water. After an excess of the staining solution was washed out, moisture was removed and the dye bound to the cells was eluted by 100 µl of methanol. Using multiscanning (Titertech), measurements were performed at a wavelength of 580 nm in accordance with the ABS method and the matrix method to confirm that the cells were not injured.

[5] = system: fibrin clot; experiment: Lysis by urokinase of 125I-fibrin clots formed from plasma of treated Beagle dogs; type: in vivo; conditions: plasma 4 Days After Administration of 30 mg/kg once a day, 37°C, 12 hours, n=3
Protocol: A test sample (Compound No. 2) was consecutively administered to Beagle dogs in a dose of 30 mg/kg once a day. Plasma was isolated prior to and 4 days after the administration. The α2-PI activity in plasma was measured and at the same time, fibrin clot was formed in vitro using the plasma. When urokinase as a thrombolytic agent was acted on the fibrin clot, a degree of lysis was compared between plasma prior to the administration and plasma 4 days after the administration.
To 300 µl of the isolated plasma, 40 µl of ^125I-fibrinogen (0.1 mci/ml) was added and 50 µl each of the mixture was dispensed in a test tube. 5 µl each of a solution mixture of 25 U/ml thrombin and 0.5 M calcium chloride was added to each test tube, which was incubated at 37°C for 30 minutes to prepare fibrin clots. Solutions of 15 and 30 U/ml of urokinase in 2% albumin solution and the resulting solution ware charged in each test tube by 1 ml each.
After incubating at 37°C for 12 hours, 25 µl of the supernatant was collected in an RAI tube and ^125I-fibrin decomposition products isolated in the supernatant were measured with a γ-counter. The sample number was 3 in each group.

## CN1C[C@H](O)[C@@H](O)[C@H](O)[C@H]1CO [Compound No. 2, N-methylmoranoline]
[1]; ip
  LD50 at 168 h: 10000 mg/kg
[1]; iv
  LD50 at 168 h: 5090 mg/kg
[1]; po
  LD50 at 168 h: 10000 mg/kg
[2]; Day 1
  α2-PI activity (%): 95%
[2]; Day 2
  α2-PI activity (%): 83%
[2]; Day 3
  α2-PI activity (%): 84%
[2]; Day 4
  α2-PI activity (%): 76%
[2]; Day 5
  α2-PI activity (%): 75%
[2]; Day 6
  α2-PI activity (%): 86%
[2]; Day 7
  α2-PI activity (%): 89%
[3]
  Induction of urokinase type plasminogen activator in CPAE (fibrin autography): strongly induced production of urokinase type plasminogen activator
[4]
  Diameter (mm) of the circle due to fibrinolysis: 7.9 mm
[5]; Urokinase Activity 0 U
  Rate of Lysis of Fibrin Clot (%): 21.5%
[5]; Urokinase Activity 15 U
  Rate of Lysis of Fibrin Clot (%): 63.8%
[5]; Urokinase Activity 30 U
  Rate of Lysis of Fibrin Clot (%): 93.7%
